Converted amounts (≈) assume the structure as drawn. Like-named read-outs stand apart in the source and are kept apart here.
Experiments:
Type in all cases: cell-based
[1] = test system: Mycoplasma hyorhinis; assay: MIC, broth-dilution microtiter test, Mycoplasma hyorhinis
Text: (§1) The MIC's in Table X were obtained using conventional broth-dilution microtiter tests.

[2] = test system: Haemophilus influenzae R252; assay: MIC, standard agar-dilution assay, Haemophilus influenzae R252
[3] = test system: Mycoplasma hyopneumoniae; assay: MIC, broth-dilution microtiter test, Mycoplasma hyopneumoniae; conditions: Mesomycoplasma hyopneumoniae; Mycoplasma hyopneumoniae; broth-dilution microtiter; read-out: MIC
Text: as §1

[4] = test system: Mycoplasma synoviae; assay: MIC, broth-dilution microtiter test, Mycoplasma synoviae; conditions: Mycoplasmopsis synoviae
Text: as §1

[5] = test system: Streptococcus pneumoniae Park I; assay: microbe, parasite or virus in culture
[6] = test system: Staphylococcus epidermidis EPI2; assay: MIC, standard agar-dilution assay, Staphylococcus epidermidis EPI2
[7] = test system: Staphylococcus aureus X400; assay: MIC, standard agar-dilution assay, Staphylococcus aureus X400
[8] = test system: Streptococcus Group D X66; assay: MIC, standard agar-dilution assay, Streptococcus Group D X66
[9] = test system: Pasteurella multocida 60A; assay: MIC, broth-dilution microtiter test, Pasteurella multocida 60A; conditions: Pasteurella multocida 60A; avian isolate; broth-dilution microtiter; read-out: MIC
Text: as §1

[10] = test system: Staphylococcus aureus S13E; assay: MIC, standard agar-dilution assay, Staphylococcus aureus S13E; conditions: Staphylococcus aureus, S13E
[11] = test system: Streptococcus pyogenes C203; assay: MIC, standard agar-dilution assay, Streptococcus pyogenes C203
[12] = test system: Haemophilus influenzae Holt; assay: MIC, standard agar-dilution assay, Haemophilus influenzae Holt
[13] = test system: Mycoplasma gallisepticum; assay: MIC, broth-dilution microtiter test, Mycoplasma gallisepticum; conditions: Mycoplasmoides gallisepticum; Mycoplasma gallisepticum; broth-dilution microtiter; read-out: MIC
Text: as §1

[14] = test system: Staphylococcus epidermidis EPI1; assay: MIC, standard agar-dilution assay, Staphylococcus epidermidis EPI1
[15] = test system: Pasteurella hemolytica 22C; assay: MIC, broth-dilution microtiter test, Pasteurella hemolytica 22C; conditions: Pasteurella hemolytica 22C; broth-dilution microtiter; read-out: MIC
Text: as §1

[16] = test system: Streptococcus Group 9960; assay: MIC, standard agar-dilution assay, Streptococcus Group 9960; conditions: GROUP9960
[17] = test system: Streptococcus bovis 80; assay: MIC, broth-dilution microtiter test, Streptococcus bovis 80; conditions: Streptococcus equinus; Streptococcus bovis 80; broth-dilution microtiter; read-out: MIC
Text: as §1

[18] = test system: Staphylococcus aureus V41; assay: MIC, standard agar-dilution assay, Staphylococcus aureus V41
[19] = test system: Staphylococcus aureus; assay: MIC, broth-dilution microtiter test, Staphylococcus aureus
Text: as §1

[20] = test system: Staphylococcus aureus X1.1; assay: MIC, standard agar-dilution assay, Staphylococcus aureus X1.1
[21] = test system: Pasteurella multocida 17E; assay: MIC, broth-dilution microtiter test, Pasteurella multocida 17E; conditions: Pasteurella multocida 17E; bovine isolate; broth-dilution microtiter; read-out: MIC
Text: as §1

[22] = Streptococcus pneumoniae Park I, agar dilution, read-out: MIC
[23] = Streptococcus Group D X66, agar dilution, read-out: MIC
[24] = Haemophilus influenzae Holt, ampicillin-sensitive strain, read-out: MIC
[25] = Staphylococcus epidermidis, EPI1
[26] = Haemophilus influenzae R252, ampicillin-resistant strain, read-out: MIC
[27] = Staphylococcus epidermidis, EPI2
[28] = Streptococcus pyogenes C203, agar dilution, read-out: MIC
[29] = Staphylococcus epidermidis EPI1, agar dilution, read-out: MIC
[30] = broth-dilution microtiter, read-out: MIC
[31] = Mycoplasma synoviae, broth-dilution microtiter, read-out: MIC
[32] = Streptococcus Group 9960, agar dilution, read-out: MIC

Row | SMILES | MIC ([1]; Mycoplasma) | MIC ([2]; Haemophilus influenzae, R252) | MIC [3] | MIC [4] | MIC [5, 22] | MIC ([7]; Staphylococcus aureus, X400) | MIC [8, 23] | MIC [9] | MIC [10] | MIC ([11]; Streptococcus pyogenes, C203) | MIC [12, 24] | MIC [13] | MIC [14, 25] | MIC [15] | MIC [16] | MIC [17] | MIC ([18]; Staphylococcus aureus, V41) | MIC ([20]; Staphylococcus aureus, X1.1) | MIC [21] | MIC [6, 27] | further results
1 | CCC1OC(=O)CC(O)C(C)C(OC2OC(C)C(OC3CC(C)(O)C(O)C(C)O3)C(N(C)C)C2O)C(CCOc2ccc([N+](=O)[O-])cc2)CC(C)C(=O)C=CC(C)=CC1COC1OC(C)C(O)C(OC)C1OC (stereo not drawn) [Compound 12, 20-DH-20-O-(p-Nitrophenyl)tylosin] | 50 µg/mL (≈ 48.1 µM) | 128 µg/mL (≈ 123 µM) | > 25 µg/mL | 1.56 µg/mL (≈ 1.5 µM) | 16 µg/mL (≈ 15.4 µM) | 2 µg/mL (≈ 1.92 µM) | 128 µg/mL (≈ 123 µM) | > 50 µg/mL | 1 µg/mL (≈ 0.962 µM) | 2 µg/mL (≈ 1.92 µM) | > 128 µg/mL | 0.39 µg/mL (≈ 0.375 µM) | 1 µg/mL (≈ 0.962 µM) | > 50 µg/mL | > 128 µg/mL | 25 µg/mL (≈ 24.1 µM) | 1 µg/mL (≈ 0.962 µM) | 1 µg/mL (≈ 0.962 µM) | > 50 µg/mL | – | MIC ([6]; Staphylococcus epidermidis EPI2, agar dilution, read-out: MIC): 0.5 µg/mL (≈ 0.481 µM); MIC [19]: 1.56 µg/mL (≈ 1.5 µM)
2 | CCC1OC(=O)CC(O)C(C)C(OC2OC(C)C(OC3CC(C)(O)C(O)C(C)O3)C(N(C)C)C2O)C(CCOc2ccc(C(=O)c3ccccc3)cc2)CC(C)C(=O)C=CC(C)=CC1COC1OC(C)C(O)C(OC)C1OC (stereo not drawn) [Compound 13, 20-DH-20-O-(p-Benzoylphenyl)tylosin] | 6.25 µg/mL (≈ 5.69 µM) | – | 3.12 µg/mL (≈ 2.84 µM) | 6.25 µg/mL (≈ 5.69 µM) | – | 4 µg/mL (≈ 3.64 µM) | – | > 50 µg/mL | 1 µg/mL (≈ 0.91 µM) | – | – | 0.78 µg/mL (≈ 0.71 µM) | – | > 50 µg/mL | 4 µg/mL (≈ 3.64 µM) | 1.56 µg/mL (≈ 1.42 µM) | 1 µg/mL (≈ 0.91 µM) | 1 µg/mL (≈ 0.91 µM) | > 50 µg/mL | 1 µg/mL (≈ 0.91 µM) | MIC [2, 26]: > 128 µg/mL; MIC ([5]; Streptococcus pneumoniae): 1 µg/mL (≈ 0.91 µM); MIC [8]: 4 µg/mL (≈ 3.64 µM); MIC [11, 28]: 2 µg/mL (≈ 1.82 µM); MIC ([12]; Haemophilus influenzae): > 128 µg/mL; MIC [14, 29]: 2 µg/mL (≈ 1.82 µM); MIC [19, 30]: 1.56 µg/mL (≈ 1.42 µM)
3 | CCC1OC(=O)CC(O)C(C)C(OC2OC(C)C(OC3CC(C)(O)C(O)C(C)O3)C(N(C)C)C2O)C(CCOc2ccc(OC)cc2)CC(C)C(=O)C=CC(C)=CC1COC1OC(C)C(O)C(OC)C1OC (stereo not drawn) [Compound 14, 20-DH-20-O-(p-Methoxyphenyl)tylosin] | – | > 128 µg/mL | > 25 µg/mL | – | 8 µg/mL (≈ 7.81 µM) | – | 128 µg/mL (≈ 125 µM) | > 50 µg/mL | 1 µg/mL (≈ 0.976 µM) | – | – | 0.78 µg/mL (≈ 0.762 µM) | – | > 50 µg/mL | – | 25 µg/mL (≈ 24.4 µM) | – | – | > 50 µg/mL | 1 µg/mL (≈ 0.976 µM) | MIC ([1]; Mycoplasma hyorhinis, broth-dilution microtiter, read-out: MIC): > 50 µg/mL; MIC [4, 31]: 6.25 µg/mL (≈ 6.1 µM); MIC ([7]; Staphylococcus aureus X400, methicillin-resistant strain, agar dilution, read-out: MIC): 2 µg/mL (≈ 1.95 µM); MIC [11, 28]: 1 µg/mL (≈ 0.976 µM); MIC ([12]; Haemophilus influenzae): 128 µg/mL (≈ 125 µM); MIC [14, 29]: 2 µg/mL (≈ 1.95 µM); MIC [16, 32]: 128 µg/mL (≈ 125 µM); MIC ([18]; Staphylococcus aureus V41, penicillin-resistant strain, agar dilution, read-out: MIC): 0.5 µg/mL (≈ 0.488 µM); MIC [19]: 1.56 µg/mL (≈ 1.52 µM); MIC ([20]; Staphylococcus aureus X1.1, agar dilution, read-out: MIC): 0.5 µg/mL (≈ 0.488 µM)
4 | CCC1OC(=O)CC(O)C(C)C(OC2OC(C)C(OC3CC(C)(O)C(O)C(C)O3)C(N(C)C)C2O)C(CCOc2cc(Cl)cc(Cl)c2)CC(C)C(=O)C=CC(C)=CC1COC1OC(C)C(O)C(OC)C1OC (stereo not drawn) [Compound 15, 20-DH-20-O-(3,5-Dichlorophenyl)tylosin] | 50 µg/mL (≈ 47 µM) | – | > 25 µg/mL | – | 16 µg/mL (≈ 15.1 µM) | 4 µg/mL (≈ 3.76 µM) | > 128 µg/mL | > 50 µg/mL | 1 µg/mL (≈ 0.941 µM) | 1 µg/mL (≈ 0.941 µM) | > 128 µg/mL | 1.56 µg/mL (≈ 1.47 µM) | 2 µg/mL (≈ 1.88 µM) | > 50 µg/mL | – | 6.25 µg/mL (≈ 5.88 µM) | 2 µg/mL (≈ 1.88 µM) | 1 µg/mL (≈ 0.941 µM) | > 50 µg/mL | 1 µg/mL (≈ 0.941 µM) | MIC [2, 26]: > 128 µg/mL; MIC [4, 31]: 3.12 µg/mL (≈ 2.93 µM); MIC [16, 32]: > 128 µg/mL; MIC [19, 30]: 1.56 µg/mL (≈ 1.47 µM)

— patent US4443436A, “C-20-Modified macrolide derivatives of the macrolide antibiotics tylosin, desmycosin, macrocin, and lactenocin” (Eli Lilly and Company, priority 1982, dated 1984)
